Holding throughout (assay): NCI tumour cell line growth inhibition, 48 h
Assay [1] concerns DLD-1 colon.
The test system of assay [2] is HOP-18 NSCLC.
In assay [3] the test system is KM20L2 colon.
Assay [4] concerns LXFL 529 NSCLC.
The subject of assay [5] is M19-MEL melanoma.
The subject of assay [6] is MDA-N.
In assay [7] the test system is RXF-631 renal.
Assay [8] deals with SNB-78 CNS.
The test system of assay [9] is XF 498 CNS.
The subject of assay [10] is P388 leukemia.
Assay [11] deals with P388/ADR leukemia.
The subject of assay [12] is SN12K1 renal.

Each structure is given as a SMILES string. Values joined by “and” are separate entries in the source; they are usually repeats but may differ in a detail not shown here. Equal values may be shown once.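 Each compound was tested at five concentrations against cells in 96-well plates for 48 hours. GI50: concentration for 50% inhibition of growth. TGI is the concentration that stops growth completely.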

Turning to `CC1=Nc2c([nH]c(=S)[nH]c2=O)NC(c2c(Cl)cccc2Cl)C1` (centres undefined), the TGI in assay [1] was found to be 5.85 µM; in assay [2] it was 30.2 µM; in assay [3] it was 13.6 µM; in assay [4], 10.2 µM; in assay [5], 3.17 µM; in assay [6], 1.99 µM. Moreover, the TGI in assay [7] amounted to 22.5 µM; in assay [8], 25 µM; in [9], 10.9 µM.
`COc1cc2oc3c(c(=O)c2c(O)c1/C=C/C(C)C)C(C=C(C)C)Oc1cc(O)ccc1-3` (centres undefined) had a TGI in assay [6] of 31.9 µM.
Regarding `CC(=O)NC(C=O)C(O[C@H](C)C(=O)NC(C)C(=O)NC(CCC(N)=O)C(=O)OCc1ccccc1)C(O)C(O)COC(=O)CCNc1c2ccccc2nc2cccc([N+](=O)[O-])c12` (some centres undefined), the TGI in assay [1] is 16.5 µM; in [2], greater than 100 µM; in assay [3], 5.58 µM; in assay [4], 3.58 µM; in assay [5] it was 4.02 µM; in [8], 14.4 µM. The compound also yielded a TGI in assay [9] of 3.71 µM.
In the case of `NC(=O)NC1C(C(=O)O)N(Cc2ccccc2)C(=O)N1Cc1ccccc1` (centres undefined), the TGI in assay [1], in assay [3], in [4], in assay [5], in assay [8] and in assay [9] was greater than 100 µM in each case.
On to `O=C1CCCCC12CCC/C2=N\O` (centres undefined), for which the TGI in assay [1], in assay [2], in [3], in [4], in assay [5] and in assay [7] was greater than 100 µM throughout. The compound also registered a TGI in assay [8] greater than 100 µM.
Regarding `O=C(NCCCl)SCCO`, the TGI in assay [1], in [3], in assay [4], in assay [5], in assay [7] and in assay [8] was greater than 100 µM in each case.
As for `CCC(C)C(=O)OCC(=O)c1ccc(-c2ccccc2)cc1` (centres undefined), the TGI in assay [6] was greater than 100 µM.
As for `O=C1OC(=O)C2C3C=CC(C12)C1C2C=CC2C31` (centres undefined), the TGI in [2], in [3], in assay [4], in assay [5], in assay [7] and in [9] was greater than 100 µM throughout.
As to `CC([O-])=C1C(=O)c2ccccc2C1=O.CC([O-])=C1C(=O)c2ccccc2C1=O.CC[O-].CC[O-].[Ti+4]`, the GI50 in [1] was greater than 100 µM; in assay [2], greater than 100 µM; in [3], greater than 100 µM; in [4], 87.5 µM; in [7], greater than 100 µM. Besides, the TGI in [1], in assay [2], in assay [3], in assay [4] and in assay [7] was greater than 100 µM throughout.
As to `CC(C)(C)N/N=C(\C(=O)NC1=C(Cl)C(=O)c2ccccc2C1=O)C1C=CCS1(=O)=O` (centres undefined), the TGI in assay [6] came to 6.33 µM.
For `O=c1[nH]cnc2c(COCCO)c[nH]c12`, the TGI in [1], in assay [2], in [3], in [4], in assay [5] and in assay [7] was greater than 100 µM in each case. The TGI in assay [8] and in assay [9] was greater than 100 µM throughout.
`N#Cc1cccc(C=NC23CC4CC(CC(C4)C2)C3)c1`: the TGI in assay [3], in [5] and in assay [8] was greater than 100 µM each time.
On to `COCCOCCOCCOc1cccc2c1C(=O)c1cccc(OCCOCCOCCOC)c1C2=O`, for which the TGI in assay [1], in [2], in assay [3], in [4], in assay [5] and in assay [7] was greater than 100 µM throughout. Moreover, the TGI in [8] and in assay [9] was greater than 100 µM each time.
Turning to `COC(=O)Cc1cc(=O)[nH]c2c1C(=O)CCC2`, the TGI in assay [1], in assay [2], in [4] and in assay [9] was greater than 100 µM throughout.
As to `Cc1ccc(S(=O)(=O)N/N=C/C(C)C)cc1`, the TGI in assay [1], in [2], in [3], in [4], in assay [5] and in assay [7] was greater than 100 µM each time. Also, in assay [8], the TGI is greater than 100 µM.
For `CCCCCCCCCCCc1c(O)c(=O)c2c(oc3c(=O)c(CCCCCCCCCCC)c(O)c(=O)c3n2-c2ccc(N(C)C)cc2)c1=O`, the TGI in [1] was 50.5 µM; in [2], 42.9 µM; in assay [3] it was 38.5 µM; in assay [4], 47.2 µM; in [8] it was greater than 100 µM; in assay [9], 37.9 µM.
In assay [6], `COC1CC(N)C(O)C(C)O1` (centres undefined) displayed a TGI greater than 100 µM.
As for `CC1OC(CC(=O)O)CC2=C1C(=O)c1c(O)cccc1C2=O` (centres undefined), the TGI in assay [1] amounted to 0.0781 µM; in [2], 3.88 µM; in assay [3], 1.2 µM; in [4] it was 0.218 µM; in [5], 0.213 µM; in [6], 0.518 µM. Moreover, the TGI in assay [7] was found to be 3.01 µM; in assay [8] it was 0.383 µM; in assay [9], 0.324 µM.
In turn, `O=C(CC1C=Cc2ccccc2N1C(=O)c1ccccc1)c1ccccc1` (centres undefined) registered a TGI in [6] of 39 µM.
In the case of `COc1ccc2c(c1)-c1nn(CCCN(C)C)c3ccc([N+](=O)[O-])c(c13)N2`, the TGI in [1] was 5.24 µM and 6.12 µM; in assay [2] it was 13.6 µM and 21 µM; in assay [3] it was 4.98 µM and 10.9 µM; in assay [5], 3.39 µM and 11.8 µM; in assay [6], 2.53 µM and 3.61 µM; in assay [10], 0.666 µM. For the same compound, the TGI in [11] was 0.925 µM; in assay [12], 0.682 µM; in assay [9], 2.34 µM and 16.2 µM. Besides, the GI50 is 0.0855 µM and 0.49 µM in [3]; 0.255 µM and 0.545 µM in assay [5]; 0.159 µM and 0.503 µM in assay [6]; 0.443 µM and 2.91 µM in assay [9].

The values are drawn from PubChem BioAssay (NCI).
